Literature values in patent US11642371B2, “Encapsulated antimicrobials and related methods of treatment” (ADVANTAGE SILVER DENTAL ARREST, LLC, priority 2018, dated 2023).

Tested on: dentinal caries lesions
Conditions: lesions that had progressed into the dentin

In the case of Silver diamine fluoride [SDF], the “dentinal caries lesions found to be arrested after treatment” value is given as “two-thirds”.
